Experimental data from PubChem BioAssay AID248 (DTP/NCI, 2004).
Toxic doses and inconclusive results are not listed. Rule as the data show it: active = T/C of 150% or more; inactive = T/C below 125%.

Test system: L1210 leukemia ip in BDF1 mice, survival T/C
Assay: NCI In Vivo Anticancer Drug Screen. Data for tumor model L1210 Leukemia (intraperitoneal) in B6D2F1 (BDF1) mice
Details: endpoint: mean survival time, higher = longer survival
How it was run: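 In this screen, tumor-bearing mice given compound are compared to those given vehicle, and their survival values are reported as a treated-to-control quotient.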

[1] = dose: 100.0 mg/kg/injection, schedule: Q01DX009 (ip), vehicle: Klucel (hydroxypropylcellulose) (HPC)
[2] = dose: 100.0 mg/kg/injection, schedule: Q04DX003 (ip), vehicle: Klucel (hydroxypropylcellulose) (HPC)
[3] = dose: 200.0 mg/kg/injection, schedule: Q01DX009 (ip), vehicle: Klucel (hydroxypropylcellulose) (HPC)
[4] = dose: 200.0 mg/kg/injection, schedule: Q04DX003 (ip), vehicle: Klucel (hydroxypropylcellulose) (HPC)
[5] = dose: 400.0 mg/kg/injection, schedule: Q01DX009 (ip), vehicle: Klucel (hydroxypropylcellulose) (HPC)
[6] = dose: 400.0 mg/kg/injection, schedule: Q04DX003 (ip), vehicle: Klucel (hydroxypropylcellulose) (HPC)
[7] = dose: 100.0 mg/kg/injection, schedule: Q04DX003 (ip), vehicle: saline
[8] = dose: 200.0 mg/kg/injection, schedule: Q04DX003 (ip), vehicle: saline
[9] = dose: 400.0 mg/kg/injection, schedule: Q04DX003 (ip), vehicle: saline
[10] = dose: 100.0 mg/kg/injection, schedule: Q01DX009 (ip), vehicle: saline
[11] = dose: 200.0 mg/kg/injection, schedule: Q01DX009 (ip), vehicle: saline
[12] = dose: 100.0 mg/kg/injection, schedule: Q04DX003 (ip), vehicle: saline with Tween-80
[13] = dose: 200.0 mg/kg/injection, schedule: Q04DX003 (ip), vehicle: saline with Tween-80
[14] = dose: 400.0 mg/kg/injection, schedule: Q04DX003 (ip), vehicle: saline with Tween-80
[15] = dose: 100.0 mg/kg/injection, schedule: Q01DX001 (ip), vehicle: saline
[16] = dose: 200.0 mg/kg/injection, schedule: Q01DX001 (ip), vehicle: saline

Measured: T/C

c1ccc2c(c1)sc1cc3ccncc3cc12
inactive: dose: 75.0 mg/kg/injection, schedule: Q01DX001 (ip), vehicle: other 110 % of control | dose: 150.0 mg/kg/injection, schedule: Q01DX001 (ip), vehicle: other 101 % of control | dose: 300.0 mg/kg/injection, schedule: Q01DX001 (ip), vehicle: other 107 % of control

O=[N+]([O-])c1ccc(C2OC2c2ccccc2)cc1 (stereo not drawn)
inactive: [1] 101 % of control | [2] 100 % of control | [3] 95 % of control | [4] 95 % of control | [5] 95 % of control | [6] 97 % of control

C=C(C)CSc1ncnc2nc[nH]c12
inactive: dose: 52.0 mg/kg/injection, schedule: Q01DX Z (ip), vehicle: other 112 % of control | dose: 80.0 mg/kg/injection, schedule: Q01DX Z (ip), vehicle: other 112 % of control | dose: 120.0 mg/kg/injection, schedule: Q01DX Z (ip), vehicle: other 124 % of control

C#CCOCCCC(=C)C
inactive: dose: 25.0 mg/kg/injection, schedule: Q01DX009 (ip), vehicle: saline 109 % of control | dose: 50.0 mg/kg/injection, schedule: Q01DX009 (ip), vehicle: saline 93 % of control

O=S(=O)(CC(I)c1ccccc1)c1ccccc1 (stereo not drawn)
inactive: [7] 105 % of control | [8] 94 % of control | [9] 92 % of control

N/N=C(\N)N(Cc1ccccc1)c1ccccc1
inactive: dose: 7.5 mg/kg/injection, schedule: Q01DX001 (ip), vehicle: saline 94 % of control | dose: 7.5 mg/kg/injection, schedule: Q01DX009 (ip), vehicle: saline 96 % of control | dose: 7.5 mg/kg/injection, schedule: Q04DX003 (ip), vehicle: saline 97 % of control | dose: 15.0 mg/kg/injection, schedule: Q01DX001 (ip), vehicle: saline 92 % of control | dose: 15.0 mg/kg/injection, schedule: Q01DX009 (ip), vehicle: saline 94 % of control | dose: 15.0 mg/kg/injection, schedule: Q04DX003 (ip), vehicle: saline 95 % of control | dose: 30.0 mg/kg/injection, schedule: Q01DX001 (ip), vehicle: saline 100 % of control | dose: 30.0 mg/kg/injection, schedule: Q01DX009 (ip), vehicle: saline 102 % of control | dose: 30.0 mg/kg/injection, schedule: Q04DX003 (ip), vehicle: saline 97 % of control

Cc1ccc(Cl)cc1NC(=O)C(Cl)Cl
inactive: [1] 92 % of control | [3] 89 % of control | [5] 90 % of control

O=C(O)C1CSC2(CCCCC2)N1 (stereo not drawn)
inactive: [7] 93 % of control | [8] 98 % of control | [9] 89 % of control

CCOC(=O)C(N)C(C)(C)S (stereo not drawn)
inactive: [10] 94 % of control | [7] 96 % of control | [11] 103 % of control | [8] 102 % of control | dose: 400.0 mg/kg/injection, schedule: Q01DX009 (ip), vehicle: saline 100 % of control | [9] 103 % of control

O=C(O)c1ccc(CC2CC3CCC2C3)cc1 (stereo not drawn)
inactive: [12] 93 % of control | [13] 91 % of control | [14] 88 % of control

COC(=O)C(c1ccccc1)c1ccccc1
inactive: dose: 100.0 mg/kg/injection, schedule: Q01DX001 (ip), vehicle: Klucel (hydroxypropylcellulose) (HPC) 97 % of control | dose: 200.0 mg/kg/injection, schedule: Q01DX001 (ip), vehicle: Klucel (hydroxypropylcellulose) (HPC) 97 % of control | dose: 400.0 mg/kg/injection, schedule: Q01DX001 (ip), vehicle: Klucel (hydroxypropylcellulose) (HPC) 104 % of control

CC(=O)OCc1ccc(Cl)cc1Cl
inactive: [12] 97 % of control | [13] 97 % of control | [14] 101 % of control

O=[N+]([O-])c1cc(Cl)ccc1S(=O)(=O)c1ccccc1
inactive: dose: 50.0 mg/kg/injection, schedule: Q01DX009 (ip), vehicle: Klucel (hydroxypropylcellulose) (HPC) 99 % of control | [1] 99 % of control | [3] 108 % of control

CC[CH2][Sn]([CH2]CC)([CH2]CC)[O]C(=O)CN1CCC[CH]([Hg][c]2cccnc2)C1 (stereo not drawn)
inactive: dose: 50.0 mg/kg/injection, schedule: Q01DX001 (ip), vehicle: saline 98 % of control | [15] 109 % of control | [16] 104 % of control

O=C(C[n+]1cccc(C(=O)Nc2ccccc2)c1)Nc1ccc(Cl)cc1
inactive: dose: 50.0 mg/kg/injection, schedule: Q04DX003 (ip), vehicle: saline 98 % of control | [15] 96 % of control | [7] 102 % of control | [16] 89 % of control | [8] 98 % of control

O=c1oc2cccc(O)c2c(O)c1Cc1ccccc1
inactive: [7] 97 % of control | [8] 94 % of control | [9] 94 % of control

O=Cc1ccc2c(c1)c1ccccc1n2C1OC(CO)C(O)C(O)C1O (stereo not drawn)
inactive: dose: 60.0 mg/kg/injection, schedule: Q04DX002 (ip), vehicle: DMSO 102 % of control | dose: 120.0 mg/kg/injection, schedule: Q04DX002 (ip), vehicle: DMSO 97 % of control

CN(C)N=Nc1cc(Cl)cc(C(N)=O)c1Cl
inactive: dose: 100.0 mg/kg/injection, schedule: Q01DX001 (ip), vehicle: saline with Tween-80 106 % of control | dose: 100.0 mg/kg/injection, schedule: Q01DX009 (ip), vehicle: saline with Tween-80 103 % of control | dose: 200.0 mg/kg/injection, schedule: Q01DX001 (ip), vehicle: saline with Tween-80 101 % of control | dose: 200.0 mg/kg/injection, schedule: Q01DX009 (ip), vehicle: saline with Tween-80 121 % of control | dose: 400.0 mg/kg/injection, schedule: Q01DX001 (ip), vehicle: saline with Tween-80 119 % of control

O=C(CCCC(=O)N/N=C/c1ccc(OCc2ccccc2)cc1)N/N=C\c1ccc(OCc2ccccc2)cc1
inactive: dose: 50.0 mg/kg/injection, schedule: Q01DX001 (ip), vehicle: other 102 % of control | dose: 100.0 mg/kg/injection, schedule: Q01DX001 (ip), vehicle: other 93 % of control | dose: 200.0 mg/kg/injection, schedule: Q01DX001 (ip), vehicle: other 93 % of control | dose: 400.0 mg/kg/injection, schedule: Q01DX001 (ip), vehicle: other 91 % of control

Cc1ccccc1C1(O)c2ccccc2-c2ccccc21
inactive: [12] 98 % of control | [13] 96 % of control | [14] 96 % of control

OCCCNc1nc2ccccc2c2ccccc12
inactive: [10] 102 % of control | [2] 94 % of control | [11] 100 % of control | [4] 102 % of control | [6] 100 % of control

CN(C)C(=S)Oc1ccc(C(F)(F)F)cc1
inactive: [2] 95 % of control | [4] 93 % of control | [6] 101 % of control
